# Where two headings read alike, the source gives them in different places.
# Experiments:
# [1] = test system: Wnt activity (Sp5-Luc reporter in SW480 colon carcinoma cells); test: Wnt activity screening assay (Sp5-Luc reporter gene assay); format: cell-based, human; settings: Homo sapiens; for EC50: Sp5-Luc reporter, SW480 cells, 36 to 48 hours; for inhibition at 10 µM: SW480, read-out: percent inhibition at 10 μM
# Excerpt: The screening assay for Wnt activity is described as follows. Reporter cell lines can be generated by stably transducing cancer cell lines (e.g., colon cancer) or primary cells (e.g., IEC-6 intestinal cells) with a lentiviral construct that includes a Wnt-responsive promoter driving expression of the firefly luciferase gene.
# SW480 colon carcinoma cells were transduced with a lentiviral vector expressing luciferase with a human Sp5 promoter consisting of a sequence of eight TCF/LEF binding sites. SW480 cells stably expressing the Sp5-Luc reporter gene and a hygromycin resistance gene were selected by treatment with 150 μg/mL of hygromycin for 7 days. These stably transduced SW480 cells were expanded in cell culture and used for all further screening activities. Each compound was dissolved in DMSO as a 10 mM stock and used to prepare compound source plates. Serial dilution (1:3, 10-point dose-response curves starting from 10 μM) and compound transfer was performed using the ECHO 550 (Labcyte, Sunnyvale, Calif.) into 384-well white solid bottom assay plates (Greiner Bio-One) with appropriate DMSO backfill for a final DMSO concentration of 0.1%. For Sp5-Luc reporter gene assays, the cells were plated at 4,000 cells/well in 384-well plates with a DMEM medium containing 1% fetal bovine serum, and 1% Penicillin-Streptomycin and incubated for 36 to 48 hours at 37° C. and 5% CO2. Following incubation, 15 μl of BriteLite Plus luminescence reagent (Perkin Elmer) was added to each well of the 384-well assay plates. The plates were placed on an orbital shaker for 2 min and then luminescence was quantified using the Envision (Perkin Elmer) plate reader. Readings were normalized to DMSO only treated cells, and normalized activities were utilized for EC50 calculations using the dose-response log (inhibitor) vs. response -variable slope (four parameters) nonlinear regression feature available in GraphPad Prism 5.0 (or Dotmatics).
# GSK3β kinase = GSK3β kinase (Homo sapiens (Human), UniProt P49841); test: GSK3β kinase assay (Ser/Thr 09 peptide Z-lyte, FRET); format: biochemical; settings: method text calls the value IC50;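 note: Coumarin/fluorescein emission ratio converted to percent phosphorylation against unphosphorylated (0%) and phosphorylated (100%) controls, 1 h compound incubation at room temperature, 11-point threefold dilutions from 10 µM, run in duplicate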
# GSK3β kinase, sequence (P49841 whole entry): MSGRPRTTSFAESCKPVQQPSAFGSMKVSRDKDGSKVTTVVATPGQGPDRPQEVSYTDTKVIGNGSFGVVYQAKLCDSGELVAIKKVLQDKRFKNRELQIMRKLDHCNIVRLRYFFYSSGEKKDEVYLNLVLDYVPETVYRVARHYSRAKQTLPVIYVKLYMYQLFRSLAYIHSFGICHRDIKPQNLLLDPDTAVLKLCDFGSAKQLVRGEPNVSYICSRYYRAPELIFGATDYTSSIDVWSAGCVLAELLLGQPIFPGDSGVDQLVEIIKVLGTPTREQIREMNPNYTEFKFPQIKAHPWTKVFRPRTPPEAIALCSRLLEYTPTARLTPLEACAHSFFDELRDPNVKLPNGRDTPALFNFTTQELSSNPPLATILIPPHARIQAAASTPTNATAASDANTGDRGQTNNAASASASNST
# [2] = test system: Tau phosphorylation at Ser396 (pSer396), SH-SY5Y cells; test: Tau phosphorylation at Ser396 (pSer396) in SH-SY5Y cells, ELISA/western blot; format: cell-based, human; settings: Homo sapiens; SH-SY5Y cells, overnight (16-18 h); read-out: pSer396 Tau EC50;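 note: cell lysates probed for reduced Tau pSer396 via ELISA (colorimetric) or western blot (chemiluminescence), both with one shared pSer396 antibody, EC50 for lowering phosphorylation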
# Procedure: Two days before treatment, cells were seeded onto 96 well plates at 5×10^4 cells/well.
# Wells were visually checked for cell death or change in morphology and supernatants were tested for cytotoxicity by measurement of lactate dehydrogenase release (LDH, CytoToxOne kit, Promega) if necessary.
# Cells were lysed with RIPA buffer complemented with phosphatase and protease inhibitors then lysates were spun down at 12,000 g for 10 min to remove any cellular debris. Lysates are then either directly tested for pSer396 by ELISA (Life Technology, Kit KHB7031) or loaded on NuPage Bis-Tris gels for western blot analysis. Colorimetric detection of ELISA signal is performed by Cytation3 plate reader (Biotek) and the chemiluminescence signal for HRP-linked antibodies used in western blotting is detected using a Carestream Image Station. The same pSer396 antibody is used for detection of pTau in both assays.
# [3] = test system: SW480 colon carcinoma cells; test: Cell viability assay (CellTiter-Glo) in SW480 cells; format: cell-based, human; settings: Homo sapiens; for EC50: 96 h, cell viability, SW480 cells, four days, CellTiter-Glo; for inhibition at 10 µM: SW480, read-out: percent inhibition at 10 μM;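 for all read-outs here: SW480 cells stably carrying an Sp5-luciferase TCF/LEF reporter, luminescent ATP signal as viability measure, DMSO-treated cells as control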
# [4] = test system: LL29 cells (primary human fibroblasts derived from IPF patients), α-smooth muscle actin; test: Inhibition of fibrotic process: αSMA in TGF-β1-treated primary human fibroblasts from IPF patients (LL29 cells); format: cell-based; settings: Homo sapiens, Fibroblast; for EC50: 96 h, % αSMA-positive LL29 cells, TGF-β1 20 ng/mL, 4 days; for inhibition at 10 µM: read-out: percent inhibition at 10 μM
# Excerpt: Representative compounds were screened using primary human fibroblasts (derived from IPF patients) treated with TGF-β1 to determine their ability to inhibit the fibrotic process.
# Primary human fibroblasts derived from IPF patients (LL29 cells) [^1Xiaoqiu Liu, et. al., “Fibrotic Lung Fibroblasts Show Blunted Inhibition by cAMP Due to Deficient cAMP Response Element-Binding Protein Phosphorylation”, Journal of Pharmacology and Experimental Therapeutics (2005), 315(2), 678-687; ^2Watts, K. L., et. al., “RhoA signaling modulates cyclin D1 expression in human lung fibroblasts; implications for idiopathic pulmonary fibrosis”, Respiratory Research (2006), 7(1), 88] were obtained from American Type Culture Collection (ATCC) and expanded in F12 medium supplemented with 15% Fetal Bovine Serum and 1% Penicillin/Streptomycin.
# Each compound was dissolved in DMSO as a 10 mM stock and used to prepare compound source plates. Serial dilution (1:2, 11-point dose-response curves from […] to 0.94 nM) and compound transfer was performed using the ECHO 550 (Labcyte, Sunnyvale, Calif.) into 384-well clear bottom assay plates (Greiner Bio-One) with appropriate DMSO backfill for a final DMSO concentration of 0.1%. LL29 cells were plated at 1,500 cells/well in 70 μL/well F12 medium supplemented with 1% Fetal Bovine Serum. TGF-β1 (Peprotech; 20 ng/mL) was added to the plates to induce fibrosis (ref. 1 and 2 above). Wells treated with TGF-31 and containing DMSO were used as positive control, and cells with only DMSO were negative control. Cells were incubated at 37° C. and 5% CO2 for 4 days. Following incubation for 4 days, SYTOX green nucleic acid stain (Life Technologies [Thermo Fisher Scientific]) was added to the wells at a final concentration of 1 μM and incubated at room temperature for 30 min. Cells were then fixed using 4% formaldehyde (Electron Microscopy Sciences), washed 3 times with PBS followed by blocking and permeabilization using 3% Bovine Serum Albumin (BSA; Sigma) and 0.3% Triton X-100 (Sigma) in PBS. Cells were then stained with antibody specific to α-smooth muscle actin (αSMA; Abcam) (ref. 1 and 2 above) in 3% Bovine Serum Albumin (BSA; Sigma) and 0.3% Triton X-100 (Sigma) in PBS, and incubated overnight at 4° C. Cells were then washed 3 times with PBS, followed by incubation with Alexa Flor-647 conjugated secondary antibody (Life Technologies [Thermo Fisher Scientific]) and DAPI in 3% Bovine Serum Albumin (BSA; Sigma) and 0.3% Triton X-100 (Sigma) in PBS at room temperature for 1 hour. Cells were then washed 3 times with PBS and plates were sealed for imaging. αSMA staining was imaged by excitation at 630 nm and emission at 665 nm and quantified using the Compartmental Analysis program on the CellInsight CX5 (Thermo Scientific). Dead or apoptotic cells were excluded from analysis based on positive SYTOX green staining. % of total cells positive for αSMA were counted in each well and normalized to the average of 11 wells treated with TGF-β1 on the same plate using Dotmatics' Studies Software.
# IL-6 = IL-6 inhibition in LPS-stimulated human peripheral blood mononuclear cells (HTRF); format: cell-based; settings: Homo sapiens, PBMC; for EC50: IL-6, LPS-stimulated huPBMCs, HTRF
# Procedure: Fresh Normal PB MNC (Catalog # PB001, AllCells, Alameda, Calif.) were shipped overnight at 4° C. and resuspended in Roswell Park Memorial Institute (RPMI) 1640 Medium, with GlutaMAX Supplement (Catalog #61870127, ThermoFisher Scientific, Waltham, Mass.) supplemented with 1% Penicillin-Streptomycin (Catalog #151401633 ThermoFisher Scientific, Waltham, Mass.) and 1% fetal bovine serum (FBS) (Catalog #16140089, ThermoFisher Scientific, Waltham, Mass.) assay media.
# Fresh normal human peripheral blood mononuclear cells (huPBMCs) were resuspended in 1% FBS-RPMI assay media with 1% Penicillin-Streptomycin 1% to a cell concentration of 1×10e6 cells/mL. Each compound was dissolved in DMSO (Catalog # D8418-100 ml, Sigma-Aldrich, St. Louis, Mo.) as a 10 mM stock and used to prepare compound source plates. Serial dilution (1:3, 10-point dose-response curves starting from 10 μM) and compound transfer was performed using the ECHO 550 (Labcyte, Sunnyvale, Calif.) into 384-well white Proxiplate-Plus assay plates (Catalog #6008289, PerkinElmer, Shelton, Conn.) with appropriate DMSO backfill for a final DMSO concentration of 0.25%. huPBMCs were plated at 5000 cells/well in the 384-well Proxiplate-Plus assay plates and incubated at 37° C.-5% CO2 for 2 hours. 50 ng/mL of Lipopolysaccharides from Escherichia coli 0111:B4 (Catalog # L5293-2 ML, Sigma-Aldrich, St. Louis, Mo.) was added after 2 hours and cells were incubated for another 22 hours at 37° C.-5% CO2. After 22 hour incubation, a mixture of anti-IL6 XL665 and anti-IL-6 Cryptate diluted in reconstitution buffer (Catalog #62IL6PEC, Cisbio Inc., Bedford, Mass.) was added to each well. Following incubation for 3 hours at room temperature, Homogeneous Time-Resolved Fluorescence (HTRF) was measured using the Envision (Perkin Elmer, Shelton, Conn.) at 665 nm and […]. The ratio of fluorescence at 665 nm to 620 nm was used as a readout for IL-6 quantification. All samples were processed in duplicate. Readings were normalized to DMSO treated cells and normalized activities were utilized for EC50 calculations. EC50 was determined using software generated by Dotmatics Limited (Windhill Bishops Stortford Herts, UK) using the Levenberg-Marquardt 4 parameter fitting procedure with finite different gradients.
# DYRK1A kinase = DYRK1A kinase (Homo sapiens (Human), UniProt Q13627); test: DYRK1A kinase assay (Ser/Thr 18 peptide Z-lyte, FRET)
# [5] = DYRK1A kinase, method text calls the value IC50
Structure (SMILES),EC50 [1] [nM],EC50 (GSK3β kinase) [nM],EC50 [2] [nM],EC50 [3] [nM],EC50 [4] [nM],EC50 (IL-6) [nM],EC50 (DYRK1A kinase; [5]) [nM],inhibition at 10 µM [1] [%],inhibition at 10 µM [3] [%],inhibition at 10 µM [4] [%],inhibition at 10 µM (IL-6; read-out: percent value in parentheses below EC50 >10) [%],EC50 (DYRK1A kinase) [nM]
"Cn1cc(-c2cc(F)c3cnc(NC(=O)[C@H]4CC[C@H](N(C)C)CC4)cc3c2)cn1 [Compound 1, trans-4-(Dimethylamino)-N-(8-fluoro-6-(1-methyl-1H-pyrazol-4-yl)isoquinolin-3-yl)cyclohexane-1-carboxamide]",239,107,368,839,445,3040,4,–,–,–,–,–
"Cn1cc(-c2cc3cc(NC(=O)[C@H]4CC[C@H](N(C)C)CC4)ncc3cc2F)cn1 [Compound 2, trans-4-(Dimethylamino)-N-(7-fluoro-6-(1-methyl-1H-pyrazol-4-yl)isoquinolin-3-yl)cyclohexane-1-carboxamide]",799,246,559,4450,150,1280,4,–,–,–,–,–
"Cn1cc(-c2cc(F)c3cnc(NC(=O)[C@H]4CC[C@H](N5CCOCC5)CC4)cc3c2)cn1 [Compound 3, trans-N-(8-Fluoro-6-(1-methyl-1H-pyrazol-4-yl)isoquinolin-3-yl)-4-morpholinocyclohexane-1-carboxamide]",1860,131,458,6670,153,1120,4,–,–,–,–,–
"CC(C)CN1CCC(CC(=O)Nc2cc3cc(-c4cnn(C)c4)ccc3cn2)C1 (stereo not shown) [Compound 4, 2-(1-Isobutylpyrrolidin-3-yl)-N-(6-(1-methyl-1H-pyrazol-4-yl)isoquinolin-3-yl)acetamide]",730,22,69,907,229,489,4,–,–,–,–,–
"CC(C)CN1CCC(C(=O)Nc2cc3cc(-c4ccn(C)n4)ccc3cn2)CC1 [Compound 7, 1-Isobutyl-N-(6-(1-methyl-1H-pyrazol-3-yl)isoquinolin-3-yl)piperidine-4-carboxamide]",> 10000,1900,–,> 10000,2660,9420,376,32.9,42.5,–,–,–
"Cc1ncc(-c2cc(F)c3cnc(NC(=O)[C@H]4CC[C@H](N5CCOCC5)CC4)cc3c2)o1 [Compound 19, trans-N-(8-Fluoro-6-(2-methyloxazol-5-yl)isoquinolin-3-yl)-4-morpholinocyclohexane-1-carboxamide]",> 10000,1160,–,> 10000,> 10000,3220,110,22.4,44.8,20.6,–,–
"Cc1ncc(-c2ccc3cnc(NC(=O)[C@H]4CC[C@H](N(C)C)CC4)cc3c2)o1 [Compound 45, trans-4-(Dimethylamino)-N-(6-(2-methyloxazol-5-yl)isoquinolin-3-yl) cyclohexane-1-carboxamide]",1860,–,320,–,95,–,3,–,–,–,–,–
"[2H]c1c([2H])c(C(=O)Nc2cc3cc(-c4cncn4C)ccc3cn2)c([2H])c([2H])c1F [Compound 81, 4-Fluoro-N-(6-(1-methyl-1H-imidazol-5-yl)isoquinolin-3-yl)benzamide-2,3,5,6-d4]",> 10000,–,2830,486,309,1120,–,36.3,–,–,–,–
"Cn1cc(-c2ccc3cnc(NC(=O)c4ccnc(N5CC[N+](C)([O-])CC5)c4)cc3c2)nn1 [Compound 224, 1-methyl-4-(4-((6-(1-methyl-1H-1,2,3-triazol-4-yl)isoquinolin-3-yl)carbamoyl)pyridin-2-yl)piperazine 1-oxide]",> 10000,703,–,> 10000,> 10000,> 10000,–,43.8,24.6,13.1,13.7,1
"Cc1ncc(-c2cc(F)c3cnc(NC(=O)N(C)C4CCN(C)CC4)cc3c2)o1 [Compound 229, 3-(8-Fluoro-6-(2-methyloxazol-5-yl)isoquinolin-3-yl)-1-methyl-1-(1-methylpiperidin-4-yl)urea]",> 10000,6710,–,> 10000,9980,8960,1000,0,49.5,–,–,–

# From patent publication US10604514B2, “6-(5-membered heteroaryl)isoquinolin-3-yl carboxamides and preparation and use thereof” (Samumed, LLC, priority 2017, dated 2020)
